Measurements taken from the NIST ThermoML archive (doi:10.1016/j.tca.2008.09.006).
Numbers after ± are expanded uncertainties.

Assay: xn = mol fraction of the nth substance listed
Details: 303.15 K, 101 kPa, Liquid; for viscosity: Capillary tube (Ostwald / Ubbelohde) method; for mass density: Vibrating tube method

C1CCCCC1 [cyclohexane] + CCCCN(CCCC)CCCC
x2 = 0
Details | mass density [kg/m3] | viscosity [mPa·s]
– | 769.16 ± 0.12 | 0.819 ± 0.006

C1CCCCC1 [cyclohexane] + CCCO
Details | mass density [kg/m3] | viscosity [mPa·s]
x2 = 0 | 769.16 ± 0.12 | 0.819 ± 0.006
x2 = 0.1021 | 769.52 ± 0.12 | 0.832 ± 0.006
x2 = 0.2112 | 770.68 ± 0.13 | 0.872 ± 0.006
x2 = 0.3122 | 772.37 ± 0.13 | 0.922 ± 0.007
x2 = 0.4211 | 774.63 ± 0.13 | 0.986 ± 0.007
x2 = 0.5151 | 776.9 ± 0.13 | 1.053 ± 0.007
x2 = 0.6203 | 779.94 ± 0.13 | 1.148 ± 0.008
x2 = 0.7208 | 783.15 ± 0.14 | 1.264 ± 0.008
x2 = 0.8143 | 786.73 ± 0.14 | 1.398 ± 0.009
x2 = 0.9079 | 790.83 ± 0.14 | 1.555 ± 0.01

C1CCCCC1 [cyclohexane] + CCN(CC)CC
x2 = 0
Details | mass density [kg/m3] | viscosity [mPa·s]
– | 769.16 ± 0.12 | 0.819 ± 0.006

CCCO [propan-1-ol] + C1CCCCC1
x1 = 1
Details | mass density [kg/m3] | viscosity [mPa·s]
– | 795.66 ± 0.14 | 1.727 ± 0.011

CCCO [propan-1-ol] + CCCCN(CCCC)CCCC
x2 = 0
Details | mass density [kg/m3] | viscosity [mPa·s]
– | 795.66 ± 0.14 | 1.727 ± 0.011

CCCO [propan-1-ol] + CCN(CC)CC
x2 = 0
Details | mass density [kg/m3] | viscosity [mPa·s]
– | 795.66 ± 0.14 | 1.727 ± 0.011

CCCCN(CCCC)CCCC [tributylamine] + C1CCCCC1
Details | mass density [kg/m3] | viscosity [mPa·s]
x1 = 0.1023 | 768.32 ± 0.13 | 0.848 ± 0.006
x1 = 0.2014 | 768.09 ± 0.13 | 0.878 ± 0.007
x1 = 0.3008 | 768.17 ± 0.13 | 0.914 ± 0.007
x1 = 0.4016 | 768.42 ± 0.13 | 0.947 ± 0.007
x1 = 0.5002 | 768.78 ± 0.13 | 0.985 ± 0.007
x1 = 0.6018 | 769.15 ± 0.14 | 1.025 ± 0.007
x1 = 0.7021 | 769.57 ± 0.14 | 1.058 ± 0.007
x1 = 0.8012 | 769.85 ± 0.14 | 1.096 ± 0.008
x1 = 0.9024 | 770.12 ± 0.15 | 1.13 ± 0.008
x1 = 1 | 770.39 ± 0.15 | 1.167 ± 0.008

CCCCN(CCCC)CCCC [tributylamine] + CCCO
Details | mass density [kg/m3] | viscosity [mPa·s]
x1 = 0.0986 | 791.71 ± 0.14 | 1.695 ± 0.011
x1 = 0.1991 | 788.31 ± 0.15 | 1.66 ± 0.011
x1 = 0.2978 | 785.47 ± 0.15 | 1.619 ± 0.01
x1 = 0.4984 | 780.18 ± 0.15 | 1.514 ± 0.01
x1 = 0.5992 | 777.82 ± 0.15 | 1.449 ± 0.01
x1 = 0.6031 | 777.75 ± 0.15 | 1.445 ± 0.01
x1 = 0.6981 | 775.71 ± 0.15 | 1.378 ± 0.009
x1 = 0.7989 | 773.78 ± 0.15 | 1.302 ± 0.009
x1 = 0.8988 | 771.94 ± 0.15 | 1.233 ± 0.008
x1 = 1 | 770.39 ± 0.15 | 1.167 ± 0.008

CCN(CC)CC [triethylamine] + C1CCCCC1
Details | mass density [kg/m3] | viscosity [mPa·s]
x1 = 0.0995 | 761.78 ± 0.13 | 0.697 ± 0.006
x1 = 0.1947 | 755.57 ± 0.13 | 0.614 ± 0.006
x1 = 0.291 | 749.84 ± 0.14 | 0.548 ± 0.005
x1 = 0.3963 | 744.18 ± 0.14 | 0.495 ± 0.005
x1 = 0.4999 | 739.03 ± 0.14 | 0.453 ± 0.005
x1 = 0.5961 | 734.6 ± 0.15 | 0.42 ± 0.005
x1 = 0.6989 | 730.17 ± 0.15 | 0.392 ± 0.005
x1 = 0.7968 | 726.09 ± 0.16 | 0.374 ± 0.005
x1 = 0.8973 | 722.21 ± 0.16 | 0.348 ± 0.005
x1 = 1 | 718.45 ± 0.17 | 0.33 ± 0.005

CCN(CC)CC [triethylamine] + CCCO
Details | mass density [kg/m3] | viscosity [mPa·s]
x1 = 0.2007 | 783.21 ± 0.15 | 1.189 ± 0.008
x1 = 0.295 | 775.99 ± 0.15 | 1.007 ± 0.007
x1 = 0.3226 | 773.73 ± 0.15 | 0.954 ± 0.007
x1 = 0.393 | 767.95 ± 0.15 | 0.845 ± 0.007
x1 = 0.4852 | 760.11 ± 0.16 | 0.719 ± 0.006
x1 = 0.6128 | 749.28 ± 0.16 | 0.574 ± 0.006
x1 = 0.7308 | 739.53 ± 0.16 | 0.47 ± 0.005
x1 = 0.7637 | 736.85 ± 0.16 | 0.444 ± 0.005
x1 = 0.8776 | 727.89 ± 0.17 | 0.375 ± 0.005
x1 = 1 | 718.45 ± 0.17 | 0.33 ± 0.005
